Values after ≈ are worked out from the molar mass of the structure shown. Values belong to the molecule of their own block, whether it stands above or below them.
Tests used:
Assay in all cases: ≥ marks a high value that may be exact or a test limit, other limits are often not marked, values filed in µg/mL are converted to µM
[1] = system: Acinetobacter baumannii ATCC 19606
Acinetobacter baumannii = system: Acinetobacter baumannii
[2] = system: Bacillus subtilis NBRC 3009
[3] = system: Escherichia coli NBRC 3972
[4] = system: Staphylococcus aureus NBRC 13276
[5] = system: Pseudomonas aeruginosa ATCC 27853
[6] = system: Pseudomonas aeruginosa ATCC 9027
[7] = system: Pseudomonas aeruginosa 73
[8] = system: Staphylococcus epidermidis ATCC 12228
[9] = system: Acinetobacter baumannii 9931
[10] = system: Acinetobacter baumannii 97830
[11] = system: Staphylococcus aureus 113
Escherichia coli 780 = system: Escherichia coli 780
[12] = system: Staphylococcus aureus ATCC 29213
[13] = system: Klebsiella pneumoniae ATCC 700603
[14] = system: Bacillus subtilis ATCC 23857
Escherichia coli 804 = system: Escherichia coli 804
[15] = system: Pseudomonas aeruginosa 50
Staphylococcus aureus 75 = system: Staphylococcus aureus 75
[16] = system: Staphylococcus aureus ATCC 29231
[17] = system: Staphylococcus aureus MW2
[18] = system: Klebsiella pneumoniae WGLW2
[19] = system: Acinetobacter baumannii ATCC 7978
[20] = system: Klebsiella aerogenes ATCC 13048
[21] = system: Candida albicans ATCC 10231
[22] = system: Cryptococcus neoformans ATCC 32264
[23] = system: Escherichia coli NEB5alpha
[24] = system: Bacillus subtilis ATCC 6051
[25] = system: Bifidobacterium longum subsp. infantis
Staphylococcus aureus = system: Staphylococcus aureus
Escherichia coli = system: Escherichia coli
Candida krusei DSM 6128 = system: Candida krusei DSM 6128
[26] = system: Escherichia coli ATCC 25922
Candida tropicalis = system: Candida tropicalis
Bacillus cereus PCM 2003 = system: Bacillus cereus PCM 2003
[27] = system: Staphylococcus aureus ATCC 25923
[28] = system: Pseudomonas aeruginosa ATCC 27857
[29] = system: Candida glabrata DSM 11226
[30] = system: Escherichia coli DH5alpha
Bacillus subtilis DELTA = system: Bacillus subtilis DELTA
[31] = system: Zymomonas mobilis ATCC 10988

Structure (SMILES): CC[C@H](C)[C@H](NC(=O)[C@H](CO)NC(=O)[C@H](Cc1ccccc1)NC(=O)[C@H](CC(C)C)NC(=O)[C@H](CO)NC(=O)CNC(=O)[C@H](CC(C)C)NC(=O)[C@@H](N)Cc1ccccc1)C(=O)NCC(=O)N[C@@H](CO)C(=O)N[C@@H](CCCCN)C(=O)N[C@@H](CC(C)C)C(=O)N[C@@H](CC(C)C)C(=O)N1CCC[C@H]1C(=O)NCC(=O)N[C@H](C(=O)N[C@H](C(=O)N[C@@H](CCCCN)C(=O)N[C@@H](CC(C)C)C(=O)N[C@@H](Cc1ccccc1)C(=O)N[C@@H](CCC(N)=O)C(=O)N[C@@H](CCCN=C(N)N)C(=O)N[C@@H](CCCCN)C(=O)N[C@@H](CCCCN)C(=O)N[C@@H](CCC(N)=O)C(N)=O)[C@@H](C)CC)C(C)C [FLGSLFSIGSKLLPGVIKLFQRKKQ]
MIC [1]: 0.9 µM (≈ 2.52 µg/mL)
MIC (Acinetobacter baumannii): 1.8 µM (≈ 5.05 µg/mL)
MIC [2]: 0.707 µM (≈ 1.98 µg/mL)
MIC [3]: 10 µM (≈ 28 µg/mL)
MIC [4]: 3.54 µM (≈ 9.92 µg/mL)

Structure (SMILES): NC(=O)[C@H](Cc1ccccc1)NC(=O)[C@H](Cc1c[nH]c2ccccc12)NC(=O)[C@H](CCCN=C(N)N)NC(=O)[C@H](Cc1c[nH]c2ccccc12)NC(=O)[C@H](Cc1c[nH]c2ccccc12)NC(=O)[C@H](Cc1c[nH]c2ccccc12)NC(=O)[C@H](CCCN=C(N)N)NC(=O)[C@H](Cc1c[nH]c2ccccc12)NC(=O)[C@@H](N)Cc1ccccc1 [FWRWWWRWF]
MIC [5]: > 128 µM
MIC [1]: 64 µM (≈ 99.5 µg/mL)
MIC [6]: 128 µM (≈ 199 µg/mL)
MIC [7]: ≥ 128 µM
MIC [8]: 4 µM (≈ 6.22 µg/mL)
MIC [9]: ≥ 32 µM
MIC [10]: ≥ 32 µM
MIC [11]: 8 µM (≈ 12.4 µg/mL)
MIC (Escherichia coli 780): ≥ 32 µM
MIC [12]: 4 µM (≈ 6.22 µg/mL)
MIC [13]: 16 µM (≈ 24.9 µg/mL)
MIC [14]: 2 µM (≈ 3.11 µg/mL)
MIC (Escherichia coli 804): ≥ 64 µM
MIC [15]: ≥ 128 µM
MIC (Staphylococcus aureus 75): 8 µM (≈ 12.4 µg/mL)

Structure (SMILES): CC(C)C[C@H](NC(=O)[C@H](C)NC(=O)[C@H](CC(=O)O)NC(=O)[C@H](CCC(=O)O)NC(=O)[C@H](CC(C)C)NC(=O)[C@H](Cc1ccccc1)NC(=O)[C@H](CC(=O)O)NC(=O)[C@@H](N)CCCN=C(N)N)C(=O)N[C@@H](CC(N)=O)C(=O)O [RDFLEDALN]
MIC [23]: ≥ 1000 µM
MIC [24]: ≥ 500 µM

Structure (SMILES): CSCC[C@H](NC(=O)[C@@H](N)CC(=O)O)C(=O)N[C@@H](CC(C)C)C(=O)N[C@H](C(=O)N[C@H](C(=O)N[C@@H](CC(=O)O)C(=O)N1CCC[C@H]1C(=O)N[C@@H](CCCCN)C(=O)O)C(C)C)C(C)C [DMLVVDPK]
MIC [25]: ≥ 3270 µM
MIC (Staphylococcus aureus): 3270 µM (≈ 3000 µg/mL)
MIC (Escherichia coli): 3270 µM (≈ 3000 µg/mL)

Structure (SMILES): CSCC[C@H](NC(=O)[C@H](C)NC(=O)[C@H](CCCN=C(N)N)NC(=O)[C@H](CCCCN)NC(=O)[C@H](Cc1c[nH]c2ccccc12)NC(=O)[C@H](CCC(N)=O)NC(=O)[C@H](Cc1ccccc1)NC(=O)[C@@H](N)CS)C(=O)N[C@@H](CCCN=C(N)N)C(=O)N[C@@H](CCCCN)C(=O)N[C@H](C(=O)N[C@@H](CCCN=C(N)N)C(N)=O)C(C)C [CFQWKRAMRKVR]
MIC (Candida krusei DSM 6128): ≥ 155 µM
MIC [21]: > 155 µM
MIC [8]: 2.49 µM (≈ 4 µg/mL)
MIC [26]: 9.94 µM (≈ 16 µg/mL)
MIC (Candida tropicalis): ≥ 155 µM
MIC (Bacillus cereus PCM 2003): ≥ 155 µM
MIC [27]: 39.2 µM (≈ 63 µg/mL)
MIC [28]: ≥ 77.7 µM
MIC [29]: ≥ 155 µM

Structure (SMILES): CC[C@H](C)[C@H](NC(=O)[C@H](CCCN=C(N)N)NC(=O)[C@H](CCC(N)=O)NC(=O)[C@@H](NC(=O)[C@@H](NC(=O)[C@H](CCCN=C(N)N)NC(=O)[C@H](CCCCN)NC(=O)[C@H](Cc1ccccc1)NC(C)=O)[C@@H](C)CC)C(C)C)C(=O)N[C@@H](CCCN=C(N)N)C(=O)N[C@@H](CC(=O)O)C(=O)N[C@@H](Cc1ccccc1)C(=O)N[C@@H](CC(C)C)C(=O)N[C@@H](CCCN=C(N)N)C(N)=O [FKRIVQRIRDFLR]
MIC [30]: ≥ 57.2 µM
MIC (Bacillus subtilis DELTA): 22.9 µM (≈ 40.9 µg/mL)
MIC [31]: ≥ 114 µM

Second part, the molecule after the results:

MIC [16]: 30.1 µM (≈ 64 µg/mL)
MIC [17]: 30.1 µM (≈ 64 µg/mL)
MIC [18]: 30.1 µM (≈ 64 µg/mL)
MIC [19]: 7.25 µM (≈ 15.4 µg/mL)
MIC [20]: ≥ 60.2 µM
Structure (SMILES): CC[C@H](C)[C@H](NC(=O)[C@H](CCCCN)NC(=O)[C@H](Cc1c[nH]c2ccccc12)NC(=O)[C@@H](N)CC(C)C)C(=O)NCC(=O)N[C@@H](CCCCN)C(=O)N[C@@H](CCCCN)C(=O)N[C@H](C(=O)N[C@@H](Cc1c[nH]c2ccccc12)C(=O)N[C@@H](CCCN=C(N)N)C(=O)N[C@H](C(=O)NCC(=O)N[C@@H](Cc1c[nH]c2ccccc12)C(=O)N[C@@H](CC(N)=O)C(=O)N[C@@H](Cc1c[nH]c2ccccc12)C(=O)N[C@@H](CCCN=C(N)N)C(=O)O)C(C)C)[C@@H](C)CC [LWKIGKKIWRVGWNWR]

MIC [21]: 50 µM (≈ 85.7 µg/mL)
MIC [22]: 25 µM (≈ 42.8 µg/mL)
Structure (SMILES): C[C@H](N)C(=O)N[C@@H](CCC(N)=O)C(=O)N[C@@H](Cc1c[nH]c2ccccc12)C(=O)N[C@@H](CCCN=C(N)N)C(=O)N[C@@H](CCCN=C(N)N)C(=O)N[C@@H](Cc1c[nH]c2ccccc12)C(=O)N[C@@H](Cc1c[nH]c2ccccc12)C(=O)N[C@@H](CCC(N)=O)C(=O)N[C@@H](Cc1c[nH]c2ccccc12)C(=O)N[C@@H](CCCN=C(N)N)C(=O)N[C@@H](CCCN=C(N)N)C(N)=O [AQWRRWWQWRR]

From DBAASP
